Experimental data taken from PubChem BioAssay AID248 (DTP/NCI, 2004).
Where “and” joins values, the source holds several entries; their conditions need not be identical. Equal entries are not always repeated. Inconclusive results and toxic doses are left out. Rule as the data show it: active = T/C of 150% or more; inactive = T/C below 125%.

System: L1210 leukemia ip in BDF1 mice, survival T/C
Assay: NCI In Vivo Anticancer Drug Screen. Data for tumor model L1210 Leukemia (intraperitoneal) in B6D2F1 (BDF1) mice
Conditions: endpoint: mean survival time, higher = longer survival
In short: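 Tumor was transplanted into mice, which were then dosed with test compound or vehicle alone. Survival was recorded for each group, and the treated figure was expressed relative to the control figure.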

[1] = dose: 50.0 mg/kg/injection, schedule: Q01DX009 (ip), vehicle: saline with Tween-80
[2] = dose: 100.0 mg/kg/injection, schedule: Q01DX009 (ip), vehicle: saline with Tween-80
[3] = dose: 100.0 mg/kg/injection, schedule: Q01DX009 (ip), vehicle: Klucel (hydroxypropylcellulose) (HPC)
[4] = dose: 100.0 mg/kg/injection, schedule: Q04DX003 (ip), vehicle: Klucel (hydroxypropylcellulose) (HPC)
[5] = dose: 400.0 mg/kg/injection, schedule: Q04DX003 (ip), vehicle: Klucel (hydroxypropylcellulose) (HPC)
[6] = dose: 100.0 mg/kg/injection, schedule: Q04DX003 (ip), vehicle: saline
[7] = dose: 200.0 mg/kg/injection, schedule: Q04DX003 (ip), vehicle: saline
[8] = dose: 200.0 mg/kg/injection, schedule: Q04DX003 (ip), vehicle: Klucel (hydroxypropylcellulose) (HPC)
[9] = dose: 25.0 mg/kg/injection, schedule: Q01DX009 (ip), vehicle: Klucel (hydroxypropylcellulose) (HPC)
[10] = dose: 50.0 mg/kg/injection, schedule: Q01DX009 (ip), vehicle: Klucel (hydroxypropylcellulose) (HPC)
[11] = dose: 25.0 mg/kg/injection, schedule: Q04DX002 (ip), vehicle: saline
[12] = dose: 50.0 mg/kg/injection, schedule: Q04DX002 (ip), vehicle: saline
[13] = dose: 100.0 mg/kg/injection, schedule: Q04DX002 (ip), vehicle: saline
[14] = dose: 100.0 mg/kg/injection, schedule: Q04DX002 (ip), vehicle: Klucel (hydroxypropylcellulose) (HPC)
[15] = dose: 200.0 mg/kg/injection, schedule: Q01DX009 (ip), vehicle: Klucel (hydroxypropylcellulose) (HPC)

Measured: T/C

Nc1[nH]c(=O)ncc1-c1ccccc1Cl
inactive: dose: 25.0 mg/kg/injection, schedule: Q01DX009 (ip), vehicle: saline with Tween-80 88 % of control | dose: 25.0 mg/kg/injection, schedule: Q04DX002 (ip), vehicle: saline with Tween-80 92 % of control and 100 % of control | dose: 25.0 mg/kg/injection, schedule: Q04DX003 (ip), vehicle: saline with Tween-80 93 % of control | dose: 50.0 mg/kg/injection, schedule: Q01DX001 (ip), vehicle: saline with Tween-80 101 % of control | [1] 91 % of control | dose: 50.0 mg/kg/injection, schedule: Q04DX002 (ip), vehicle: saline with Tween-80 101 % of control and 103 % of control | dose: 50.0 mg/kg/injection, schedule: Q04DX003 (ip), vehicle: saline with Tween-80 92 % of control | dose: 100.0 mg/kg/injection, schedule: Q01DX001 (ip), vehicle: saline with Tween-80 101 % of control | [2] 94 % of control and 91 % of control | dose: 100.0 mg/kg/injection, schedule: Q04DX003 (ip), vehicle: saline with Tween-80 103 % of control | dose: 200.0 mg/kg/injection, schedule: Q04DX003 (ip), vehicle: saline with Tween-80 101 % of control

CS(=O)(=O)n1c(CBr)nc2ccccc21
inactive: dose: 100.0 mg/kg/injection, schedule: Q04DX003 (ip), vehicle: saline sonified 103 % of control | dose: 200.0 mg/kg/injection, schedule: Q04DX003 (ip), vehicle: saline sonified 88 % of control

CCOc1ccc(/C=N\N=C\c2ccc(OCC)cc2)cc1
inactive: [3] 89 % of control | [4] 93 % of control | [5] 97 % of control

CC1(C)CCc2cc3c(O)c(-c4ccccc4)c(=O)oc3cc2O1
inactive: [6] 97 % of control | [7] 91 % of control | dose: 400.0 mg/kg/injection, schedule: Q04DX003 (ip), vehicle: saline 91 % of control

CC1(C)C2CCC(CCOC(=O)COc3ccc(Cl)cc3)C1C2 (configuration not stated)
inactive: [4] 98 % of control | [8] 100 % of control | [5] 100 % of control

COC1=C(OC)C(=O)c2ccccc2C1=O
inactive: dose: 12.5 mg/kg/injection, schedule: Q01DX009 (ip), vehicle: Klucel (hydroxypropylcellulose) (HPC) 95 % of control | [9] 92 % of control | [10] 98 % of control

CC(C)NNC(=O)c1ccccc1
inactive: [11] 109 % of control | [12] 120 % of control | [13] 109 % of control

CC(=O)OC(C)C(C)C(=O)OCC12C3CC4(C)C(=CCC5C6(C)CCC(OC7OC(C(=O)O)C(OC8OC(CO)C(O)C(O)C8O)C(O)C7OC7OCC(O)C(O)C7O)C(C)(CO)C6CCC54C)C1CC(C)(C)C(O3)C2O (configuration not stated)
inactive: dose: 5.0 mg/kg/injection, schedule: Q01DX001 (sc), vehicle: steriod suspending solution 105 % of control | dose: 50.0 mg/kg/injection, schedule: Q01DX001 (sc), vehicle: steriod suspending solution 112 % of control

O=C1c2cccc3cccc(c23)C(=O)N1c1ncn[nH]1
inactive: dose: 50.0 mg/kg/injection, schedule: Q01DX001 (ip), vehicle: saline 94 % of control | dose: 100.0 mg/kg/injection, schedule: Q01DX001 (ip), vehicle: saline 107 % of control | dose: 400.0 mg/kg/injection, schedule: Q01DX001 (ip), vehicle: saline 102 % of control

COC(OC)c1nc(N)nc(N)c1-c1ccccc1
inactive: dose: 100.0 mg/kg/injection, schedule: Q01DX008 (ip), vehicle: Klucel (hydroxypropylcellulose) (HPC) 108 % of control | [4] 103 % of control | [8] 95 % of control | [5] 94 % of control

C=CCC(C(=O)OC)C(=O)C(C)(C)C (configuration not stated)
inactive: [1] 100 % of control | [2] 92 % of control | dose: 200.0 mg/kg/injection, schedule: Q01DX009 (ip), vehicle: saline with Tween-80 100 % of control

COC(C(=O)O)c1cccc2ccccc12 (configuration not stated)
inactive: [14] 113 % of control | dose: 200.0 mg/kg/injection, schedule: Q04DX002 (ip), vehicle: Klucel (hydroxypropylcellulose) (HPC) 109 % of control | dose: 400.0 mg/kg/injection, schedule: Q04DX002 (ip), vehicle: Klucel (hydroxypropylcellulose) (HPC) 98 % of control

C/C(=C\c1ccccc1Cl)[N+](=O)[O-]
inactive: [3] 95 % of control | [4] 100 % of control | [15] 93 % of control | [8] 96 % of control | [5] 105 % of control

O=C(O)CNC(=S)SCc1ccccc1
inactive: dose: 100.0 mg/kg/injection, schedule: Q04DX002 (ip), vehicle: gum acacia 97 % of control | dose: 200.0 mg/kg/injection, schedule: Q04DX002 (ip), vehicle: gum acacia 87 % of control | dose: 400.0 mg/kg/injection, schedule: Q04DX002 (ip), vehicle: gum acacia 97 % of control

COc1cc(/C=N\NC(=S)Nc2ccc(S(=O)(=O)N3CCCCC3)cc2)cc(OC)c1OC
inactive: dose: 100.0 mg/kg/injection, schedule: Q04DX002 (ip), vehicle: saline with Tween-80 98 % of control | dose: 200.0 mg/kg/injection, schedule: Q04DX002 (ip), vehicle: saline with Tween-80 103 % of control | dose: 400.0 mg/kg/injection, schedule: Q04DX002 (ip), vehicle: saline with Tween-80 90 % of control

CCOc1ccc2nc(N)sc2c1
inactive: [10] 94 % of control | [3] 110 % of control | [6] 99 % of control | [15] 111 % of control | [7] 89 % of control

NC(=O)c1ncn(C2OC(CO)C(O)C2O)c1C(N)=O (configuration not stated)
inactive: dose: 100.0 mg/kg/injection, schedule: Q01DX001 (ip), vehicle: carboxymethylcellulose (CMC) 104 % of control | dose: 200.0 mg/kg/injection, schedule: Q01DX001 (ip), vehicle: carboxymethylcellulose (CMC) 123 % of control

CCN(C(=O)/C=C/c1ccccc1)C1CCCCC1
inactive: [3] 94 % of control | [4] 102 % of control | [15] 102 % of control | [8] 96 % of control | dose: 400.0 mg/kg/injection, schedule: Q01DX009 (ip), vehicle: Klucel (hydroxypropylcellulose) (HPC) 86 % of control | [5] 105 % of control

N#C/C(=C\c1cccn1Cc1ccc2c(c1)OCO2)C(N)=O
inactive: dose: 25.0 mg/kg/injection, schedule: Q04DX002 (ip), vehicle: Klucel (hydroxypropylcellulose) (HPC) 101 % of control | dose: 50.0 mg/kg/injection, schedule: Q04DX002 (ip), vehicle: Klucel (hydroxypropylcellulose) (HPC) 101 % of control | [14] 96 % of control

CSc1nc(NC(=O)CCl)cc(=O)[nH]1
inactive: [9] 93 % of control and 97 % of control and 89 % of control | [3] 97 % of control and 89 % of control | [4] 90 % of control | [8] 98 % of control | [5] 102 % of control

C[S+]1CCC(N)C(=O)C1 (configuration not stated)
inactive: dose: 12.5 mg/kg/injection, schedule: Q04DX002 (ip), vehicle: saline 103 % of control | [11] 120 % of control | [12] 113 % of control and 91 % of control | [13] 103 % of control

CNC(=O)ON=C(C)C
inactive: dose: 75.0 mg/kg/injection, schedule: Q01DX001 (ip), vehicle: saline 102 % of control | dose: 75.0 mg/kg/injection, schedule: Q01DX009 (ip), vehicle: saline 99 % of control | dose: 150.0 mg/kg/injection, schedule: Q01DX001 (ip), vehicle: saline 102 % of control | dose: 150.0 mg/kg/injection, schedule: Q01DX009 (ip), vehicle: saline 94 % of control | dose: 300.0 mg/kg/injection, schedule: Q01DX001 (ip), vehicle: saline 109 % of control | dose: 300.0 mg/kg/injection, schedule: Q01DX009 (ip), vehicle: saline 108 % of control

C=CC[Se]CC=C
inactive: [4] 106 % of control | [8] 121 % of control
